In a compilation of properties of binary mixtures (doi:10.1098/rsos.241459/v2/response1) one finds electrical conductivity and viscosity data, which are given here for 2 compounds.

Structures are written as SMILES.

As a reminder, the viscosity is the resistance of a fluid to flow. Lower therefore signals a thin fluid.

A short description of this data set: xn = mol fraction of the nth substance listed. Particulars: 298.15 K, 100 kPa.

In the case of `OCCO` + CCCC[n+]1ccn(C)c1.F[B-](F)(F)F, where the note is “x2 = 0”, the electrical conductivity was determined as 0.001 S/m and the viscosity came out at 17.41 mPa·s.
`CCCC[n+]1ccn(C)c1.F[B-](F)(F)F` + OCCO: the viscosity turned out to be 15.5 mPa·s (x1 = 0.0895); 15.52 mPa·s (x1 = 0.1758); 18.87 mPa·s (x1 = 0.3578); 21.3 mPa·s (x1 = 0.4397); 31.97 mPa·s (x1 = 0.6482); 51.8 mPa·s (x1 = 0.8121). The electrical conductivity is 0.63 S/m (x1 = 0.1758), 0.727 S/m (x1 = 0.3578), 0.766 S/m (x1 = 0.4397) and 0.577 S/m (x1 = 0.6482).
